One data set deals with Rat FAAH (Rattus norvegicus (Rat), UniProt P97612). As to the kind of experiment: In vitro rat FAAH radiometric assay. To be noted: rat brain homogenate, 10 min pre-incubation at 37° C.; read-out: r-FAAH IC50. Format: biochemical. The method, then:
In Vitro Rat FAAH Radiometric Assay
Rat FAAH was prepared from male Sprague Dawley rat brains, homogenized in a potter in 20 mM of Tris HCl pH 7.4, 0.32 M sucrose.
The radiometric assay used to measure FAAH activity was performed in Eppendorf tubes: 50 μg of total rat brain homogenate were pre-incubated in 445.5 μL of assay buffer (50 mM Tris-HCl pH 7.4, 0.05% Fatty acid-free-bovine serum albumin (BSA)) with 4.5 μL of inhibitor (at appropriate concentration in DMSO) or DMSO alone (to measure FAAH total activity) for 10 min at 37° C. The blank (no activity control) was prepared using 445.5 μL of assay buffer and 4.5 μL of DMSO without the 50 μg of total rat brain homogenate.
After 10 min of pre-incubation with test compounds, the reaction was started by adding of 50 μL of substrate and incubating for 30 min at 37° C. The substrate was prepared in assay buffer in order to achieve the final concentration of 1 μM arachidonoyl ethanolamide (Cayman Chemical N. 90050) and 0.6 nM anandamide [ethanolamine-1-^3H] (American Radiolabeled Chemicals Inc, ART. 0626, Conc. 1 mCi/mL, S.A. 60 Ci/mmol). The reaction was stopped by adding cold 1:1 CHCl3/MeOH. After 10 min of centrifugation (845×g at 4° C.) 600 μL of aqueous phase were transferred into scintillation vials previously filled with 3 mL of scintillation fluid (Ultima Gold™, Perkin Elmer Inc., Cat. 6013329). Radioactivity was measured by liquid scintillation counting (MicroBeta2 LumiJET Perkin Elmer Inc.).
(§1) Concentrations causing half-maximal inhibition of FAAH, IC50 values, were determined by non-linear regression analysis of the Log [concentration]/response curves generated with mean replicate values using a four parameter Hill equation curve fitting with GraphPad Prism 5 (GraphPad Software Inc., CA—USA).

In the next data set the target is human FAAH-1 (Homo sapiens (Human), UniProt O00519). Description: In vitro human FAAH fluorescent assay. To be noted: human FAAH-1 membrane preparation from HEK-293, 50 min pre-incubation at 37° C.; read-out: h-FAAH IC50. Format: biochemical. On the procedure:
In Vitro Human FAAH Fluorescent Assay
Human recombinant FAAH was obtained from a HEK-293 cell line stably overexpressing human FAAH-1 enzyme. Cells were grown in Dulbecco's Modified Eagle Medium (DMEM) medium containing 10% FBS, 1% pen/strep, 1% glutamine and 500 μg/mL G418. To obtain membrane preparation cells were scraped off with cold PBS and collected by centrifugation (500×g, 10 min, 4° C.); the cell pellet was re-suspended in 20 mM Tris-HCl pH 7.4, 0.32M sucrose, disrupted by sonication (10 pulses, 5 times) and centrifuged (800×g, 15 min, 4° C.); the collected supernatant was centrifuged at 105,000×g for 1 h at 4° C. and the pellet was re-suspended in PBS.
The fluorescent assay to measure FAAH activity was performed in 96 wells black plates: 2.5 μg of human FAAH-1 membrane preparation were pre-incubated for 50 min at 37° C., in 180 µL of assay buffer (50 mM TrisHCl pH 7.4, 0.05% Fatty acid-free-BSA) with 10 μL of inhibitor (at appropriate concentration in DMSO) or 10 μL DMSO to measure FAAH total activity. The background (no activity) samples were prepared using 180 μL of assay buffer without human FAAH-1 and 10 μL of DMSO. The reaction was then started by the addition of 10 μL of a 40 μM substrate solution (N. 10005098, Cayman Chemical) dissolved in ethanol, and used at a final concentration of 2 μM. The reaction was carried out for 30 min at 37° C. and fluorescence was measured with a Tecan Infinite M200 nanoquant plate reader (excitation wavelength 350 nm/emission wavelength 460 nm).
as §1

A short description of data set [1]: Aqueous kinetic solubility assay. Format: physicochemical. To be noted: phosphate buffered saline, aqueous buffer, kinetic from dmso stock, PBS pH 7.4, target 250 μM, 2.5% DMSO, 25° C. The method, then: Aqueous Kinetic Solubility Assay
The aqueous kinetic solubility was determined from a 10 mM DMSO stock solution of test compound in Phosphate Buffered Saline (PBS) at pH 7.4.
The study was performed by incubation of an aliquot of 10 mM DMSO stock solution in PBS (pH 7.4) at a target concentration of 250 μM resulting in a final concentration of 2.5% DMSO. The incubation was carried out under shaking at 25° C. for 24 h followed by centrifugation. The supernatant was analyzed by UPLC/MS for the quantification of dissolved compound by UV at a specific wavelength (215 nm).
The aqueous kinetic solubility (in μM) was calculated by dividing the peak area of the supernatant by the peak area of the test compound reference and further multiplied by the concentration of the test compound reference and dilution factor.
The UPLC/MS analyses were performed on a Waters ACQUITY UPLC/MS system consisting of a SQD (Single Quadrupole Detector) Mass Spectrometer equipped with an Electrospray Ionization interface and a Photodiode Array Detector. The PDA range was 210-400 nm. The analyses were run on an ACQUITY UPLC BEH C18 column (50×2.1 mmID, particle size 1.7 m) with a VanGuard BEH C18 pre-column (5×2.1 mmID, particle size 1.7 μm). The mobile phase was 10 mM NH4OAc in H2O at pH 5 adjusted with AcOH (A) and 10 mM NH4OAc in MeCN—H2O (95:5) at pH 5 (B). Electrospray ionization in positive and negative mode was applied in the mass scan range 100-500 Da.

Data set [2] is described as follows: Pharmacokinetic experiment in cannulated Sprague-Dawley rats (PO and IV). The conditions noted are these: plasma, rat; for bioavailability: PO 10 mg/kg vs IV 3 mg/kg, read-out: Oral bioavailability (F %). Format: in vivo. The method, then: Pharmacokinetic Experiment and Analysis
Compounds were administered orally (PO) and intravenously (IV) to cannulated Sprague-Dawley rats at 10 and 3 mg/kg, respectively. Vehicle was: PEG400/Tween 80/Saline solution at 10/10/80 (% in volume), respectively. Three animals per dose were treated. Blood samples at 0, 15, 30, 60, 120, 240, 480 and 1440 min after administration were collected for PO arm. Blood samples at 0, 5, 15, 30, 60, 120 and 240 min after administration were collected for IV arm. Plasma was separated from blood by centrifugation for 15 min at 3500 rpm a 4° C., collected in a Eppendorf tube and frozen (−80° C.). Control animals treated with vehicle only were also included in the experimental protocol.
Preparation of Samples, Standard Curve and QC Samples for UPLC-MS Analysis
Samples were thawed in an ice bath and after a short centrifugation transferred (50 μL) into a 96-deepwell plate and added with 150 μL of acetonitrile spiked with 200 nM Warfarin (the Internal Standard, I.S.). After agitation (3 min) the plate was centrifuged at 3000 g for 10 min at 4° C. 80 μL of supernatant was then transferred in a 96-well plate and added with 80 μL of water. Standard compound was spiked in neat solvent (PBS pH 7.4 added with 10% acetonitrile) to prepare a calibration curve over the 1 nM-10 μM range. Three quality controls (QCs) samples were also prepared spiking the compound in blank rat plasma to final 20, 200 and 2000 nM concentrations. Calibrators and QCs were crashed with acetonitrile spiked with the I.S. as described for the plasma samples. Dosing solutions, previously diluted 2000 fold in the neat solvent were also included in the samples and tested.
Compounds plasma levels were monitored on a Xevo TQ UPLC-MS/MS system (Waters, Milford USA), using the calibration curve and the internal standard (Warfarin). Chromatography was carried out on a Acquity BEH C18 column (2.1×50 mmID, 1.7 m particle size, Waters, Milford USA). Flow rate was 0.5 mL/min. The mobile phase was (A) H2O/0.1% formic acid; (B) MeCN/0.1% formic acid. A linear gradient was applied from 5 to 100% B in 2 min. 3 μL of each sample were loaded on column. MS parameters and multiple reaction monitoring (MRM) transitions were carefully tuned for each compound. Plasma levels data were analyzed using PKSolutions excel application (Summit Research Service, USA) to derive the most important pharmacokinetic parameters.
The oral bioavailability (F %) data, and the Area Under the Curve (AUC) data (ng×min/mL) corresponding to the IV (3 mg/kg) and PO (10 mg/kg) dose of selected compounds described in the Examples are reported in Table 3. Their F % data are in the range from 35 to 87.

[3] abbreviates: IV, 3 mg/kg, read-out: AUC IV (3 mg/kg) (converted).
The mark [4] stands for this setting: PO, 10 mg/kg, read-out: AUC PO (10 mg/kg) (converted).

pIC50: −log10 of the molar value. Values after ≈ are worked out from the molar mass of the structure shown. Where two headings read alike, the source gives them in different places.

Chain of human FAAH-1 (O00519 whole entry): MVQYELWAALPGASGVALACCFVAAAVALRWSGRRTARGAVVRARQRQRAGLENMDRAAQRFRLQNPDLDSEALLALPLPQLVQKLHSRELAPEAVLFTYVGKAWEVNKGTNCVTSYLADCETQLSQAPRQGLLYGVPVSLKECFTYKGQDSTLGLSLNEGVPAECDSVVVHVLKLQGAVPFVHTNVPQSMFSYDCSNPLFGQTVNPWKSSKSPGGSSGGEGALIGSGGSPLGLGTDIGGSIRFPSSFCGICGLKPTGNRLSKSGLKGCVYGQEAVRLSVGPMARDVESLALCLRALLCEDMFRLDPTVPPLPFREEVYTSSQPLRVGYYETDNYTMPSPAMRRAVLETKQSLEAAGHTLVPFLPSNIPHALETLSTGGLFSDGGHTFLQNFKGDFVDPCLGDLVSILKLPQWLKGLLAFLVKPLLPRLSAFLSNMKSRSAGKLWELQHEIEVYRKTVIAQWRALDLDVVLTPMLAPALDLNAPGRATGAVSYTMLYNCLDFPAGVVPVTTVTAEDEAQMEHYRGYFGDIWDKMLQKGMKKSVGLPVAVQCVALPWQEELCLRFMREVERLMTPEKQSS
Chain of Rat FAAH (P97612 whole entry): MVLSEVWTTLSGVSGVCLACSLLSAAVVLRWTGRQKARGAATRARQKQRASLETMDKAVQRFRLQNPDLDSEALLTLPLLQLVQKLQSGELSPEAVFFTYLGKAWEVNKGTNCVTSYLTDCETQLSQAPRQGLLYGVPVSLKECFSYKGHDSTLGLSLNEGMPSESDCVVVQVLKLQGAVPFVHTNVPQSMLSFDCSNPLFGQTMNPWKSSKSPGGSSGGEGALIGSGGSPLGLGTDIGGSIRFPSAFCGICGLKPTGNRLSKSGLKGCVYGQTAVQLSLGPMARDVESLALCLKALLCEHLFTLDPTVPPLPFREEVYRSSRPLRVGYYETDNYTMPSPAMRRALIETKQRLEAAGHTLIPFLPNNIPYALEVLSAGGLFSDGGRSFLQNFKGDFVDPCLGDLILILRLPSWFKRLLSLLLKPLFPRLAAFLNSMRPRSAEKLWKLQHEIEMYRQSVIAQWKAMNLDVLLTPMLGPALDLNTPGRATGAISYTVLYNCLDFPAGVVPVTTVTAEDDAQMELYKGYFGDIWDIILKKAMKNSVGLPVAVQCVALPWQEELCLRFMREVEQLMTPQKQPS

One may read the pIC50 as −log10 of the IC50, conventionally taken in molar units. Usually solubility (kinetic) stands for solubility judged after dilution from a stock solution rather than from solid. The bioavailability is the share of a dose that reaches the circulation, judged against a reference dose that is usually intravenous. On to `NC(=O)c1cccc(-c2cc(OC(=O)NC3CCC3)ccc2F)c1` [Example 3, [3-(3-carbamoylphenyl)-4-fluoro-phenyl] N-cyclobutylcarbamate], for which the values for the pIC50 on Rat FAAH and on human FAAH-1 were 9.05 and 8.74, respectively. The solubility (kinetic) at 24 h in data set [1] was 33 µM (≈ 10.8 µg/mL). In addition, the bioavailability in data set [2] turned out to be 79%. In addition, the AUC in data set [2] (setting [3]) is 498 ng·h/mL; in data set [2] (setting [4]), 1310 ng·h/mL.
Turning to `NC(=O)c1cccc(-c2cc(OC(=O)NC3CCCCC3)ccc2OC(F)F)c1` [Example 8, [3-(3-carbamoylphenyl)-4-(difluoromethoxy)phenyl] N-cyclohexylcarbamate], the pIC50 on Rat FAAH is 8.85; at human FAAH-1 it was 8.09. Besides, in data set [1], the kinetic solubility at 24 h was 44 µM (≈ 17.8 µg/mL). In addition, the bioavailability in data set [2] was 35%. Also, the results for the AUC in data set [2] (setting [3]) and in data set [2] (setting [4]) were 2110 ng·h/mL and 2430 ng·h/mL, respectively.
`CNC(=O)c1cccc(-c2cc(OC(=O)NC3CCCCC3)ccc2OC(F)F)c1` [Example 9, [4-(difluoromethoxy)-3-[3-(methylcarbamoyl)phenyl]phenyl] N-cyclohexyl carbamate]: the pIC50 is 8.46 on Rat FAAH and 7.92 at human FAAH-1. In data set [1], this molecule showed a kinetic solubility at 24 h of 8 µM (≈ 3.35 µg/mL). In addition, in data set [2], the bioavailability stood at 53%. Besides, the AUC in data set [2] (setting [3]) was 1390 ng·h/mL; in data set [2] (setting [4]), 2480 ng·h/mL.

For the origin of these results see patent publication US9822068B2, “Inhibitors of fatty acid amide hydrolase (FAAH) enzyme with improved oral bioavailability and their use as medicaments” (THE REGENTS OF THE UNIVERSITY OF CALIFORNIA, priority 2014, dated 2017).
